Experimental data taken from US11981658B2, “Substituted aminopyridine compounds as EGFR inhibitors” (YUHAN CORPORATION, priority 2021, dated 2024).
Like-named read-outs stand apart in the source and are kept apart here.

Assays:
EGFR L858R/T790M/C797S = EGFR L858R/T790M/C797S (Homo sapiens, UniProt P00533, C797S/L858R/T790M); assay: Biochemical EGFR kinase inhibition assay (Lance Ultra TR-FRET), triple mutant L858R/T790M/C797S
Summary of the method: (§1)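 Enzyme reactions lasted 1 hour at room temperature with test compounds between 0.003 and 10 μM, followed by 10 mM EDTA quench.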

EGFR L858R/C797S = EGFR L858R/C797S (Homo sapiens, UniProt P00533, C797S/L858R); assay: Biochemical EGFR kinase inhibition assay (Lance Ultra TR-FRET), double mutant L858R/C797S
Summary of the method: as §1

EGFR wildtype (WT) = EGFR wildtype (WT) (Homo sapiens, UniProt P00533); assay: Biochemical EGFR kinase inhibition assay (Lance Ultra TR-FRET), wildtype
Summary of the method: as §1

EGFR Del19/T790M/C797S = EGFR Del19/T790M/C797S (Homo sapiens, UniProt P00533, C797S/DEL746-750/T790M); assay: Biochemical EGFR kinase inhibition assay (Lance Ultra TR-FRET), triple mutant del19/T790M/C797S
Summary of the method: as §1

EGFR Del19/C797S = EGFR Del19/C797S (Homo sapiens, UniProt P00533, C797S/DEL746-750); assay: Biochemical EGFR kinase inhibition assay (Lance Ultra TR-FRET), double mutant del19/C797S
Summary of the method: as §1

[1] = IC50 L858R/T790M/C797S (nM), 100 μM ATP
[2] = Km ATP, read-out: IC50 L858R/T790M/C797S (nM) Km ATP
[3] = IC50 L858R/C797S (nM), 100 μM ATP
[4] = Km ATP, read-out: IC50 L858R/C797S (nM) Km ATP
[5] = Km ATP, read-out: IC50 WT (nM) Km ATP
[6] = IC50 Del19/T790M/C797S (nM), 100 μM ATP
[7] = Km ATP, read-out: IC50 Del19/T790M/C797S (nM) Km ATP
[8] = IC50 Del19/C797S (nM), 100 μM ATP
[9] = Km ATP, read-out: IC50 Del19/C797S (nM) Km ATP
[10] = Km ATP, read-out: IC50 L858R/T790M/C797S (nM), Km ATP
[11] = Km ATP, read-out: IC50 L858R/C797S (nM), Km ATP
[12] = Km ATP, read-out: IC50 WT (nM), Km ATP
[13] = Km ATP, read-out: IC50 Del19/T790M/C797S (nM), Km ATP
[14] = Km ATP, read-out: IC50 Del19/C797S (nM), Km ATP
[15] = ATP at Km, read-out: IC50 L858R/T790M/C797S (nM), Km ATP
[16] = ATP at Km, read-out: IC50 L858R/C797S (nM), Km ATP
[17] = ATP at Km, read-out: IC50 WT (nM), Km ATP
[18] = ATP at Km, read-out: IC50 Del19/T790M/C797S (nM), Km ATP
[19] = ATP at Km, read-out: IC50 Del19/C797S (nM), Km ATP

Sequence of EGFR wildtype (WT) (P00533 25-1210): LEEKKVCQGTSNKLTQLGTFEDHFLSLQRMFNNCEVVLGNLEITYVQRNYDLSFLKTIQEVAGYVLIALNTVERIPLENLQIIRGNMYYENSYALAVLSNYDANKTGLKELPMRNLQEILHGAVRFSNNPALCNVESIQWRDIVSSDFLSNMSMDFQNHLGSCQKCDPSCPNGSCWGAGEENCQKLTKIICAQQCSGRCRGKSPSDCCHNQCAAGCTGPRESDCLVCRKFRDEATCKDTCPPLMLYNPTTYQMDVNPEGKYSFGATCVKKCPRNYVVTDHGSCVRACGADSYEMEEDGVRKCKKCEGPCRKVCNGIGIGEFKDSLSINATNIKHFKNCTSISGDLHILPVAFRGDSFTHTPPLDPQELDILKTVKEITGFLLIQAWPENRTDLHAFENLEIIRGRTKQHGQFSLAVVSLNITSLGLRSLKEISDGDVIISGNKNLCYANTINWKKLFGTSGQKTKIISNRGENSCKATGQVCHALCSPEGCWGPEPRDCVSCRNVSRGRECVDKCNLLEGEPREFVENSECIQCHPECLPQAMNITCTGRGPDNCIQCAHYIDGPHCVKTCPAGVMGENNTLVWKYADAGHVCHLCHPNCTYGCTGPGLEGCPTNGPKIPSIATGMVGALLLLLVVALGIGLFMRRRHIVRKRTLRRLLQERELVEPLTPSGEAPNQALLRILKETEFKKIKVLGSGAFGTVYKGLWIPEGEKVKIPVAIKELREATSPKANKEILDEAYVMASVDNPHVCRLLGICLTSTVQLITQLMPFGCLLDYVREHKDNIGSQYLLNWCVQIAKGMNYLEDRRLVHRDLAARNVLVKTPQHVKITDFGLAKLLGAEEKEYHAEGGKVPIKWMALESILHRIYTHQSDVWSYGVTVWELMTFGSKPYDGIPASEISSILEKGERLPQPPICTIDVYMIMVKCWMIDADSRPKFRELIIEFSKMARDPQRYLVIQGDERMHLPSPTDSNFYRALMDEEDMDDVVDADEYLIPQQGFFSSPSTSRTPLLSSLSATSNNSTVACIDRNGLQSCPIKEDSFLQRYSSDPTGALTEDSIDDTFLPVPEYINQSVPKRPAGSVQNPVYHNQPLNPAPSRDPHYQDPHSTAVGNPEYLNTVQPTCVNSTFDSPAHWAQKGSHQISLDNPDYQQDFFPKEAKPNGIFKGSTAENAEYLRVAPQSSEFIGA
Sequence of EGFR Del19/T790M/C797S (P00533 with tags, fused parts or gaps DEL746-750/T790M/C797S): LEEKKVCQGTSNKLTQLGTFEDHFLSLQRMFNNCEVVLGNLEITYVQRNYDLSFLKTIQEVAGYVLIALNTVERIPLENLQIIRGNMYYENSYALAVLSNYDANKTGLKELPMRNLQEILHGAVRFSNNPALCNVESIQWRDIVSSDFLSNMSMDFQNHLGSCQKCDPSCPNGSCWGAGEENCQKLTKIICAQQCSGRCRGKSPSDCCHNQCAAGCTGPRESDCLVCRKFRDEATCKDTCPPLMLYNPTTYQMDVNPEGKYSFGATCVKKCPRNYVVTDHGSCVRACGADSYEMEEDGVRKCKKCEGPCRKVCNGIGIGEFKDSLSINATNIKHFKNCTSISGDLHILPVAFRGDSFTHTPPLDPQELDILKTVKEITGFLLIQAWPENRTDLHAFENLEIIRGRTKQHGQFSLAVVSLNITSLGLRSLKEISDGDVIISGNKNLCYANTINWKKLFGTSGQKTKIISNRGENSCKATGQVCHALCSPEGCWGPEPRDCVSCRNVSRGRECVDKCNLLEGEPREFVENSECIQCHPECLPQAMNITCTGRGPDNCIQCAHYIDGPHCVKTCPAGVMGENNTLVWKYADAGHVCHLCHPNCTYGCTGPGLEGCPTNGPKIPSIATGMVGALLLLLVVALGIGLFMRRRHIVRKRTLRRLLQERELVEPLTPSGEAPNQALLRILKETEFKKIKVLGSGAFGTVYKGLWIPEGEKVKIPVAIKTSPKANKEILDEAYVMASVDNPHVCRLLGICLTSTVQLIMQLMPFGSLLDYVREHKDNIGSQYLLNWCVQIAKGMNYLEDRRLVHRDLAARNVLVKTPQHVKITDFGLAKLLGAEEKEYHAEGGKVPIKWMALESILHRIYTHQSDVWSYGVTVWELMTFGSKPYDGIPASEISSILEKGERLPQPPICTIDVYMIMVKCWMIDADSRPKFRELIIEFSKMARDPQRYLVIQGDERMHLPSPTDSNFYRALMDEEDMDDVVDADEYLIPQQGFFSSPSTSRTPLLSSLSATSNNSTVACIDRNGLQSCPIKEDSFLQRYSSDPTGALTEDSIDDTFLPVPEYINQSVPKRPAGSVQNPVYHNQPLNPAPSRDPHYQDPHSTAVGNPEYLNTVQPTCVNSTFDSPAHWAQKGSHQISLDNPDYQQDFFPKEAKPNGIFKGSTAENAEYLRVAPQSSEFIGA
Sequence of EGFR Del19/C797S (P00533 with tags, fused parts or gaps DEL746-750/C797S): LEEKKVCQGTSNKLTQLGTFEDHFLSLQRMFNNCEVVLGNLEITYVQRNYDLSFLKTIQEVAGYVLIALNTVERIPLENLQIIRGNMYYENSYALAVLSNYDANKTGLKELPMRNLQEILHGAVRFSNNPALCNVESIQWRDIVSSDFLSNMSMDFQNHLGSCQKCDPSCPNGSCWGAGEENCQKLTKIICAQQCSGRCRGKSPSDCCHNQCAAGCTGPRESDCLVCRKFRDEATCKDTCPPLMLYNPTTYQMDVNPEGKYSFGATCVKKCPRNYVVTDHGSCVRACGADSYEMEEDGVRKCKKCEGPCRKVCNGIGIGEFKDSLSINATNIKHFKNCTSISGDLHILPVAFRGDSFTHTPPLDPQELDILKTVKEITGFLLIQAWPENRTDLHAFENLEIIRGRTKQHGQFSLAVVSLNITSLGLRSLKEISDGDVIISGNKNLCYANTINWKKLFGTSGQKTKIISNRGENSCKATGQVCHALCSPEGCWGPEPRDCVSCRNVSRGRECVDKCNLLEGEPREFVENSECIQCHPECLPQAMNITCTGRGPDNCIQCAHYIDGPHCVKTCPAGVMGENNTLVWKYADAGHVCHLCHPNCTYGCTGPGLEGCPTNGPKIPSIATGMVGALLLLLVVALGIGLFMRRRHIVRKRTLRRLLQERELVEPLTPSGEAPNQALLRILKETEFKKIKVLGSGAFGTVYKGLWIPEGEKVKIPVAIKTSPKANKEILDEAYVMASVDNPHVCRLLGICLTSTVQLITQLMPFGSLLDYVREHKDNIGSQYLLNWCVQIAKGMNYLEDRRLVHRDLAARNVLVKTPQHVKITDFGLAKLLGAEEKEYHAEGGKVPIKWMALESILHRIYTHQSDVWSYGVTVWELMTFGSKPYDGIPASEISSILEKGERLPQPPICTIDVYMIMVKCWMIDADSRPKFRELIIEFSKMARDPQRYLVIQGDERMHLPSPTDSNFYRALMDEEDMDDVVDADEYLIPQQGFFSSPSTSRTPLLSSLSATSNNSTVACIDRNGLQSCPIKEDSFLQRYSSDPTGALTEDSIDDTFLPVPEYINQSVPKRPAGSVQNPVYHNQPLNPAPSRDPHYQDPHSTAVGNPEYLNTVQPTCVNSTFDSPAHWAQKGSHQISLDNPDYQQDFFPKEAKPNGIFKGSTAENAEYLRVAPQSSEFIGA
Sequence of EGFR L858R/C797S (P00533 25-1210 C797S/L858R): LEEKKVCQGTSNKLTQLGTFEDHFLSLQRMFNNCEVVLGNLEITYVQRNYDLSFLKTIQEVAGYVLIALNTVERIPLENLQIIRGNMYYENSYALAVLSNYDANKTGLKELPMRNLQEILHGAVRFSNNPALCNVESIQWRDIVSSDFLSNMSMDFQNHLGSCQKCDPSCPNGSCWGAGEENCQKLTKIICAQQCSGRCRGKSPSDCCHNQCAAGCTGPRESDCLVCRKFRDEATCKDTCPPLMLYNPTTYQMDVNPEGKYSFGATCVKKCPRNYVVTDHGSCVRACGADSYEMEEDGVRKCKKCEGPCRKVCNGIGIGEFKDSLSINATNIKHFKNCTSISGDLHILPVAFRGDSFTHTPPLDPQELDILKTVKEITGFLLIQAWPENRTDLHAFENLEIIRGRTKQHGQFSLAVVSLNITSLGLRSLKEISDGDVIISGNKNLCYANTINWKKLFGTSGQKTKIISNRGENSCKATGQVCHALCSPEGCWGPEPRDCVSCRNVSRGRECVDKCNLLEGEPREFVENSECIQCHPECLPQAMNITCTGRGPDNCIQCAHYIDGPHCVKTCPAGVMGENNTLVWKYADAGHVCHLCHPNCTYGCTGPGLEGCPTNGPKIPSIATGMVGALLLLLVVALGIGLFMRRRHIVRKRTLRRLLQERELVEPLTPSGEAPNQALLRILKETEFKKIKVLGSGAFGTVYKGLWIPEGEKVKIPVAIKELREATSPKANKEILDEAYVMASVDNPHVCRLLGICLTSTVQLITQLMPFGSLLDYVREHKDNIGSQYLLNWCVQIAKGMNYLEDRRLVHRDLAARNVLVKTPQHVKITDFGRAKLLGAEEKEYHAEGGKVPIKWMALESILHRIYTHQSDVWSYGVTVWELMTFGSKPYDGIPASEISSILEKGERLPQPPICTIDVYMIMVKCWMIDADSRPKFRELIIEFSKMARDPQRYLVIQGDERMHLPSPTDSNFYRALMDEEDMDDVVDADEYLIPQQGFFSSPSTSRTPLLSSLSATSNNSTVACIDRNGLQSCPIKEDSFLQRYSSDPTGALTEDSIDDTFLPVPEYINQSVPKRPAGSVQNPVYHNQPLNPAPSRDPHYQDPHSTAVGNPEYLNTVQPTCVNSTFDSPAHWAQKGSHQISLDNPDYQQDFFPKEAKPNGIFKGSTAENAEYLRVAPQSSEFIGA

SMILES	IC50 (EGFR L858R/T790M/C797S; [1]) [nM]	IC50 (EGFR L858R/T790M/C797S; [2]) [nM]	IC50 (EGFR L858R/C797S; [3]) [nM]	IC50 (EGFR L858R/C797S; [4]) [nM]	IC50 (EGFR wildtype (WT); IC50 WT (nM), 100 μM ATP) [nM]	IC50 (EGFR wildtype (WT); [5]) [nM]	IC50 (EGFR Del19/T790M/C797S; [6]) [nM]	IC50 (EGFR Del19/T790M/C797S; [7]) [nM]	IC50 (EGFR Del19/C797S; [8]) [nM]	IC50 (EGFR Del19/C797S; [9]) [nM]	IC50 (EGFR L858R/T790M/C797S; [10]) [nM]	IC50 (EGFR L858R/C797S; [11]) [nM]	IC50 (EGFR wildtype (WT); [12]) [nM]	IC50 (EGFR Del19/T790M/C797S; [13]) [nM]	IC50 (EGFR Del19/C797S; [14]) [nM]	IC50 (EGFR L858R/T790M/C797S; [15]) [nM]	IC50 (EGFR L858R/C797S; [16]) [nM]	IC50 (EGFR wildtype (WT); [17]) [nM]	IC50 (EGFR Del19/T790M/C797S; [18]) [nM]	IC50 (EGFR Del19/C797S; [19]) [nM]
CN(C)C[C@H]1CC[C@H](COc2cc(Nc3ccnc(-c4cnn(S(=O)(=O)C5CC5)c4)n3)ncc2C#Cc2cnn(C)c2)CC1 [Example 58, 2-(1-(Cyclopropylsulfonyl)-1H-pyrazol-4-yl)-N-(4-(((1r,4r)-4-((dimethylamino)methyl)cyclohexyl)methoxy)-5-((1-methyl-1H-pyrazol-4-yl)ethynyl)pyridin-2-yl)pyrimidin-4-amine]	0.5	0.1	24.7	4.7	> 10000	15.1	1.1	0.3	2.8	0.6										
O=S(=O)(C1CC1)n1cc(-c2nccc(Nc3cc(N4CCC(F)CC4)c(C#Cc4cnn(C5CCOCC5)c4)cn3)n2)cn1 [Example 97, 2-(1-(Cyclopropylsulfonyl)-1H-pyrazol-4-yl)-N-(4-(4-fluoropiperidin-1-yl)-5-((1-(tetrahydro-2H-pyran-4-yl)-1H-pyrazol-4-yl)ethynyl)pyridin-2-yl)pyrimidin-4-amine]	5.9	1.7	162	9.2	> 10000	86.5	1.8	1.8	25.1	18.3										
CN1CCn2ncc(C#Cc3cnc(Nc4ccnc(-c5cnn(S(=O)(=O)C6CC6)c5)n4)cc3N3CCC(C)(CO)CC3)c2C1 [Example 150, (1-(2-((2-(1-(Cyclopropylsulfonyl)-1H-pyrazol-4-yl)pyrimidin-4-yl)amino)-5-((5-methyl-4,5,6,7-tetrahydropyrazolo[1,5-a]pyrazin-3-yl)ethynyl)pyridin-4-yl)-4-methylpiperidin-4-yl)methanol]	0.5	0.2	8.9	2.2	3760	4.9	0.5	0.5	0.7	0.8										
CC1(CO)CCN(c2cc(Nc3ccnc(-c4cnn(S(=O)(=O)C5CC5)c4)n3)ncc2C#C[Si](C)(C)C)CC1 [Example 246, (1-(2-((2-(1-(Cyclopropylsulfonyl)-1H-pyrazol-4-yl)pyrimidin-4-yl)amino)-5-((trimethylsilyl)ethynyl)pyridin-4-yl)-4-methylpiperidin-4-yl)methanol]	15.4		957		> 10000		6.4		54.6							3.8	105	258	7.4	34
CN(C)CC1CCN(c2cc(Nc3ccnc(-c4cnn(S(=O)(=O)C5CC5)c4)n3)ncc2C#Cc2cnn(CC(F)F)c2)CC1 [Example 301, 2-(1-(Cyclopropylsulfonyl)-1H-pyrazol-4-yl)-N-(5-((1-(2,2-difluoroethyl)-1H-pyrazol-4-yl)ethynyl)-4-(4-((dimethylamino)methyl)piperidin-1-yl)pyridin-2-yl)pyrimidin-4-amine]	1.4		138		> 10000		0.7		4.9							0.6	11.2	22.9	0.6	7.2
O=S(=O)(C1CC1)n1cc(-c2nccc(Nc3cc(N[C@H]4CC[C@@H](O)CC4)c(C#Cc4ccc(CN5CCOCC5)s4)cn3)n2)cn1 [Example 190, (1s,4s)-4-((2-((2-(1-(Cyclopropylsulfonyl)-1H-pyrazol-4-yl)pyrimidin-4-yl)amino)-5-((5-(morpholinomethyl)thiophen-2-yl)ethynyl)pyridin-4-yl)amino)cyclohexan-1-ol]	6.7		71.5		> 10000		5.1		4.6							1	8.9	19.7	1.8	3.3
O=S(=O)(C1CC1)n1cc(-c2nccc(Nc3cc(N[C@H]4CCC[C@H](O)C4)c(C#Cc4cnn(CCF)c4)cn3)n2)cn1 [Example 44, (1S,3S)-3-((2-((2-(1-(Cyclopropylsulfonyl)-1H-pyrazol-4-yl)pyrimidin-4-yl)amino)-5-((1-(2-fluoroethyl)-1H-pyrazol-4-yl)ethynyl)pyridin-4-yl)amino)cyclohexan-1-ol]	1.4		12.7		2310		1.2		2.6											

Continued, values first:

IC50 (EGFR L858R/T790M/C797S; [1]) [nM]	IC50 (EGFR L858R/T790M/C797S; [2]) [nM]	IC50 (EGFR L858R/C797S; [3]) [nM]	IC50 (EGFR L858R/C797S; [4]) [nM]	IC50 (EGFR wildtype (WT); IC50 WT (nM), 100 μM ATP) [nM]	IC50 (EGFR wildtype (WT); [5]) [nM]	IC50 (EGFR Del19/T790M/C797S; [6]) [nM]	IC50 (EGFR Del19/T790M/C797S; [7]) [nM]	IC50 (EGFR Del19/C797S; [8]) [nM]	IC50 (EGFR Del19/C797S; [9]) [nM]	IC50 (EGFR L858R/T790M/C797S; [10]) [nM]	IC50 (EGFR L858R/C797S; [11]) [nM]	IC50 (EGFR wildtype (WT); [12]) [nM]	IC50 (EGFR Del19/T790M/C797S; [13]) [nM]	IC50 (EGFR Del19/C797S; [14]) [nM]	IC50 (EGFR L858R/T790M/C797S; [15]) [nM]	IC50 (EGFR L858R/C797S; [16]) [nM]	IC50 (EGFR wildtype (WT); [17]) [nM]	IC50 (EGFR Del19/T790M/C797S; [18]) [nM]	IC50 (EGFR Del19/C797S; [19]) [nM]	SMILES
1.5		55.1		> 10000		1.6		2.6		0.4	3.6	26.7	0.9	2.2						CC1(C#Cc2cnc(Nc3ccnc(-c4cnn(S(=O)(=O)C5CC5)c4)n3)cc2N[C@H]2CC[C@@H](O)CC2)CC1 [Example 359, (1s,4s)-4-((2-((2-(1-(Cyclopropylsulfonyl)-1H-pyrazol.-4-yl)pyrimidin-4-yl)amino)-5-((1-methylcyclopropyl)ethynyl)pyridin-4-yl)amino)cyclohexan-1-ol]
1		29.7		> 10000		0.9		7.5		0.5	4.9	18.2	1	3.8						O=S(=O)(C1CC1)n1cc(-c2nccc(Nc3cc(N[C@H]4CC[C@@H](O)CC4)c(C#Cc4cnn(CC(F)(F)F)c4)cn3)n2)cn1 [Example 339, (1s,4s)-4-((2-((2-(1-(Cyclopropylsulfonyl)-1H-pyrazol-4-yl)pyrimidin-4-yl)amino)-5-((1-(2,2,2-trifluoroethyl)-1H-pyrazol-4-yl)ethynyl)pyridin-4-yl)amino)cyclohexan-1-ol]
										51.7	69.3	564	165	268						CC1(CO)CCN(c2cc(Nc3ccnc(N4CCN(S(=O)(=O)C5CC5)CC4)n3)ncc2C#Cc2cnn(C(F)(F)F)c2)CC1 [Example 449, (1-(2-((2-(4-(Cyclopropylsulfonyl)piperazin-1-yl)pyrimidin-4-yl)amino)-5-((1-(trifluoromethyl)-1H-pyrazol-4-yl)ethynyl)pyridin-4-yl)-4-methylpiperidin-4-yl)methanol]
2.1		89.8		> 10000		1.1		6.9							0.8	16.3	115	0.9	6.2	CC(C)(O)[C@H]1CC[C@@H](Nc2cc(Nc3ccnc(-c4cnn(S(=O)(=O)C5CC5)c4)n3)ncc2C#Cc2cnn(CC(F)F)c2)CC1 [Example 325, 2-((1s,4s)-4-((2-((2-(1-(Cyclopropylsulfonyl)-1H-pyrazol-4-yl)pyrimidin-4-yl)amino)-5-((1-(2,2-difluoroethyl)-1H-pyrazol-4-yl)ethynyl)pyridin-4-yl)amino)cyclohexyl)propan-2-ol]
4		4610		> 10000		7.7		53.5		1.2			4.3							O=C(c1ccc(C#Cc2cnc(Nc3ccnc(-c4cnn(S(=O)(=O)C5CC5)c4)n3)cc2NC[C@H]2CC[C@H](CO)CC2)cc1)N1CCC(O)CC1 [Example 443, (4-((6-((2-(1-(Cyclopropylsulfonyl)-1H-pyrazol-4-yl)pyrimidin-4-yl)amino)-4-((((1 r,4r)-4-(hydroxymethyl)cyclohexyl)methyl)amino)pyridin-3-yl)ethynyl)phenyl)(4-hydroxypiperidin-1-yl)methanone]
2.3		119		> 10000		1.3		6.9		0.5	12.6	52.7	1.6	6.4						O=S(=O)(C1CC1)n1cc(-c2nccc(Nc3cc(NC4CCC(O)CC4)c(C#CC4CCOC4C(F)(F)F)cn3)n2)cn1 [Example 420, (1s,4s)-4-((2-((2-(1-(Cyclopropylsulfonyl)-1H-pyrazol-4-yl)pyrimidin-4-yl)amino)-5-(((2R)-2-(trifluoromethyl)tetrahydrofuran-3-yl)ethynyl)pyridin-4-yl)amino)cyclohexan-1-ol]
